According to patent US11040053B2, “Compositions and methods for activating “stimulator of interferon gene”13 dependent signalling” (CHINOOK THERAPEUTICS, INC., priority 2015, dated 2021):
“Also recorded” adds a separate entry of the source.

Assays:
[1] = biological target: T1, HAQ allele hSTING (Homo sapiens, UniProt Q86WV6, G230A/H232R/R293Q); assay: Differential scanning fluorometry (DSF) binding to purified hSTING HAQ allele; conditions: for hSTING Tm Shift HAQ: DSF, 1 mg/ml STING AA140-379, ligand 1 mM; for binding relative to OH reference compound, in words: Table 4 comment, HAQ allele hSTING
T1 construct: DNA encoding amino acids 140-379 (amino acid numbering corresponding to Swiss Prot Q86WV6); 6xHIS (N, cleaved yes); SUMO (N, cleaved yes); made in house; host or cells: Rosetta2 (DE3) E. coli
Procedure: (§1) Cells were grown in lysogeny broth at 37° C. until a […] absorbance of 0.6 was reached. […] Cell pellets were re-suspended on ice in a buffer containing 50 mM Tris hydrochloride (Tris-HCl) pH 7.5, 500 mM sodium chloride (NaCl), 20 mM imidazole, 10% glycerol, 1 mM tris(2-carboxyethyl)phosphine hydrochloride (TCEP) and protease inhibitor tablet (Pierce) (Buffer A). Cells were lysed using an S-450D sonifier (Emmerson industrial) on ice. […] Protein was aliquoted, flash frozen in liquid nitrogen and stored at −80° C. until use.
(§2) The protein is heated in the presence of a dye that binds to and fluoresces in hydrophobic environments. The protein is thermally denatured by heating resulting in increased dye binding to the unfolded protein and fluorescence. The temperature midpoint (Tm) of a proteins denaturation is established by calculating the half maximal value of the denaturation curve. The temperature midpoint of the protein in the presence of a ligand is directly related to the affinity of the ligand for the protein and therefore its ability to stabilize the protein at higher temperatures.
(§3) Samples were placed in hard shell PCR plate (Bio-Rad). The fluorescence as a function of temperature was recorded in a CFX 96 real time PCR machine (Bio-Rad) reading on the HEX channel, excitation 450-490, emission 560-580 nm. The temperature gradient was from 15-80° C. ramping 0.5° C. per 15 seconds and recording every 0.5° C. After subtraction of the background signal from a sample lacking protein and ligand. The midpoint temperature (Tm) was calculated by fitting the curves of the fluorescence as a function of temperature to a Boltzmann sigmoidal function (Graph Pad Prism).

[2] = biological target: T2, wild type (WT) STING allele (Homo sapiens, UniProt Q86WV6, H232R); assay: Cytokine transcript induction (qRT-PCR) in STING^WT/WT hPBMCs; type: cell-based; conditions: FIGS. 7A-B, 2 hours stimulation, 100 μM to 0.1 μM
T2 construct: one donor was homozygous for the wild type (WT) STING allele; endogenous in cells; host or cells: human PBMCs, donor STING WT/WT
Procedure: (§4) The induction of type I interferon was measured in human primary blood mononuclear cells (hPBMCs) to evaluate the potency of mono- or di-F-CDN compounds as described herein. hPBMCs from two unique donors were used: one donor was homozygous for the wild type (WT) STING allele (STING^WT/WT) and the other donor was homozygous for the so-called reference (REF) STING allele (STING^REF/REF). The STING genotype of these donors was determined by PCR amplification and sequencing: genomic DNA was isolated from 10^4 hPBMCs using Quick Extract DNA Extraction Solution (Epicentre) and was used to amplify regions of exon 3, 6, and 7 of the human STING gene.
(§5) Cells were incubated at 37° C., 5% CO2 with concentrations ranging from 100 μM to 0.1 μM of each CDN. After 2 hours (FIGS. 7 and 8) or 2 hours and 6 hours (FIGS. 9-13) stimulation, cells were harvested by centrifugation and washed once with phosphate-buffered saline. Cellular RNA was isolated using the Aurum Total RNA 96 Kit and cDNA was synthesized using the iScript cDNA Synthesis Kit. Target and reference gene expression was assessed by real-time qRT-PCR using PrimePCR probe assays and the CFX96 gene cycler (all reagents and equipment from BioRad). Normalized IFNβ expression was expressed relative to untreated cells. Target genes included type I interferon (IFNβ), Th1-associated cytokines (IFNγ, IL-12p40) and NF-kB dependent inflammatory cytokines (TNFα, IL-6). Reference genes included GUSB alone (FIGS. 7 and 8) or GUSB and HSP90AB1 (FIGS. 9-13).

[3] = biological target: T3, reference (REF) STING allele (Homo sapiens, UniProt Q86WV6); assay: Cytokine transcript induction (qRT-PCR) in STING^REF/REF hPBMCs; type: cell-based; conditions: for cytokine responses (IFNβ, TNFα, IL-6, IFNγ, IL-12p40 expression), in words: FIGS. 9B-13B, 2 hours and 6 hours stimulation
T3 construct: endogenous in cells
Procedure: as §4, §5

[4] = biological target: T4, hSTING HAQ allele (Homo sapiens, UniProt Q86WV6, G230A/H232R/R293Q/R71H); assay: IRF-3 inducible secreted luciferase reporter in THP1-Dual cells without digitonin; type: cell-based; conditions: for EC50: without digitonin in THP1 cells (HAQ allele); for activity relative to OH reference compound, in words: Table 5 comment, THP1 cells without digitonin
T4 construct: a human monocyte cell line containing the hSTING HAQ allele; host or cells: THP1-Dual cells
Procedure: After 30 minutes, cells were washed and fresh RPMI media containing 10% FBS was added, and cells were incubated at 37° C. with 5% CO2 Cell culture supernatants from each sample were collected after overnight incubation, and 10 μL of the cell culture supernatants was added to 50 μL QUANTI-Luc reagent (Invivogen). Type I interferon activation was determined by measuring secreted luciferase levels on a SpectraMax M3 spectrophotometer (Molecular Devices). The EC50 value was determined from the dose-response curve for the 10 concentrations from the serial dilution of the reference compounds and compounds of the invention tested in this assay as listed in Table 5.

[5] = tested on: B16.SIY cells; assay: B16.SIY melanoma mouse model, intra-tumoral injection; type: in vivo, C57BL/6 mice; conditions: FIG. 14B, 5 μg IT, day 7 post-IT injection, vs HBSS control
Procedure: To determine whether the derivative molecules elicit anti-tumor immunity, 6-8 week old female C57BL/6 mice (8 mice per group) were implanted with B16.SIY cells (5×10^5 cells in 100 μL PBS). Mice were treated with reference compound 3′3′-RR-(A)(A) and di-F compound 3′3′-RR-(2′F-A)(2′F-A) (5, 50, 100 μg in a total volume of 40 μL HBSS), or HBSS vehicle control. Treatments began when tumors reached a volume of approximately 100 mm^3, on day 9 post tumor implantation. The CDN compounds were administered by […] injection into the center of the tumor (IT) using a 27 gauge needle. Mice were bled on day 16 post tumor implantation and PBMCs were isolated by Ficoll gradient (Miltenyi Biotech). 1×10^5 PBMCs were pre-incubated with anti-CD16/32 monoclonal antibody to block potential nonspecific binding, and labeled with PE-MHC class I pentamer (Proimmune) consisting of murine H-2Kb complexed to […] (SIY, SEQ ID NO: 16) peptide, anti-TCRβ-AF700 (H57-597), anti-CD8-Pacific Blue (53-6.7), anti-CD4-Pacific Orange (RM4-5) (all antibodies from BioLegend) and the Fixable Viability Dye eFluor 450 (eBioscience). Stained cells were analyzed using FACS Versa cytometer with FACSDiva software (BD). Data analysis was conducted with FlowJo software (Tree Star).

[6] = biological target: T5, hSTING(REF) (Homo sapiens, UniProt Q86WV6); assay: IFN-β luciferase reporter in HEK293T cells stably expressing hSTING(REF), digitonin permeabilization; conditions: FIGS. 6A-B, 0.1 μM to 100 μM and 6.25 μM CDN
Target sequence in this assay (Q86WV6 whole entry, the tested form may be a part): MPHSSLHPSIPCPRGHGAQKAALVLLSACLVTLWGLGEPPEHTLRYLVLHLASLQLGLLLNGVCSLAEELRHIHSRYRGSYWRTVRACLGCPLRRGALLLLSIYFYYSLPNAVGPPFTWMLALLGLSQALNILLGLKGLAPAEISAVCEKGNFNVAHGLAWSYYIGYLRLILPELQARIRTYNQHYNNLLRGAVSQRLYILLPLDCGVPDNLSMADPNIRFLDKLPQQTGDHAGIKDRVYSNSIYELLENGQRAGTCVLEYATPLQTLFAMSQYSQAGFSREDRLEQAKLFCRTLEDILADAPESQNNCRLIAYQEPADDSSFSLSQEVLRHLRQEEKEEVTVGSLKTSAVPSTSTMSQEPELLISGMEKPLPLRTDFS
Procedure: 24 hours later, cells were stimulated with native and synthetic CDN derivative molecules using digitonin permeabilization to ensure uniform uptake.
After 20 min, the stimulation mixtures were removed and 200 ul of DMEM media supplemented with 10% (vol/vol) fetal bovine serum, 1% L-Glutamine, and 1% Penicillin/Streptomycin was added. Cells were incubated an additional 6 hours (37° C., 5% CO2) and then cell lysates were prepared and reporter gene activity measured on a Spectramax M3 luminometer using the Dual-Glo Luciferase Assay System (Promega, catalog #E2920) as described by the manufacturer. IFNβ firefly luciferase reporter gene activity was normalized to TK renilla luciferase gene activity and plotted as fold induction over activity in unstimulated cells (mean+/−s.e.m.).

[7] = biological target: hSTING(WT) (Homo sapiens, UniProt Q86WV6, H232R); assay: Differential scanning fluorometry (DSF) binding to purified hSTING WT; set-up: DNA encoding amino acids 140-379 (amino acid numbering corresponding to Swiss Prot Q86WV6); 6xHIS (N, cleaved yes); SUMO (N, cleaved yes); made in house; host or cells: Rosetta2 (DE3) E. coli; conditions: for hSTING Tm Shift WT: DSF, 1 mg/ml STING AA140-379, ligand 1 mM; for binding relative to OH reference compound, in words: Table 4 comment, wild type hSTING
Procedure: as §1, §2, §3

[8] = biological target: T5, hSTING(REF); assay: Differential scanning fluorometry (DSF) binding to purified hSTING REF allele; set-up: DNA encoding amino acids 140-379 (amino acid numbering corresponding to Swiss Prot Q86WV6); 6xHIS (N, cleaved yes); SUMO (N, cleaved yes); made in house; host or cells: Rosetta2 (DE3) E. coli; conditions: for hSTING Tm Shift REF: DSF, 1 mg/ml STING AA140-379, ligand 1 mM; for binding relative to OH reference compound, in words: Table 4 comment, REF allele hSTING
Procedure: as §1, §2, §3
Target sequence in this assay (Q86WV6 140-379): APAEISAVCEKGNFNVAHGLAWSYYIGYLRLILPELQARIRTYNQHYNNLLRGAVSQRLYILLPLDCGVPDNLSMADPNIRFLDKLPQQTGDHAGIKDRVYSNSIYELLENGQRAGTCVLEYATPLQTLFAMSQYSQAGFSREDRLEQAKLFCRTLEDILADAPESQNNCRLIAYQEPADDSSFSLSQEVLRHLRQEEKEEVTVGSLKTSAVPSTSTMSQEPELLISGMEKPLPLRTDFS

[9] = biological target: T6, human-STING(E149-S379)H232R protein (Homo sapiens, UniProt Q86WV6, H232R); assay: Surface Plasmon Resonance binding to hSTING WT; conditions: Biacore T200, 15° C., steady-state analysis
T6 construct: His6 (C); made in house; host or cells: E. coli
Procedure: Binding of the mono- and di-F CDN compounds was assessed using Surface Plasmon Resononce to determine a binding constant. An E. coli expression construct (human-STING[E149-S379]H232R) was prepared harboring the protein sequence:
Aliquots were prepared and stored at −80° C. in 30 mM Tris pH 7.5/100 mM NaCl/10% glycerol.
N-terminal avi-tagged human-STING(E149-S379)H232R protein was immobilized (2500 RUs) on a streptavidin chip at 15° C. in a Biacore T200 (GE Healthcare). Titrations of cyclic dinucleotides (CDNs as indicated in Table 6) in 30 mM Tris pH 7.5/50 mM NaCL/0.005% Tween 20/1 mM DTT/2% DMSO, were profiled (30 μLs/min, 180 seconds for sample contact/120 seconds for dissociation) against hSTING at 15° C. Kinetic analysis of the data was performed using Biacore T200 Evaluation software. Steady-state analysis of the data was performed using Graphpad Prism 6.0 software, using one site-specific binding algorithm (Equation is Y=Bmax*X/(Kd+X)).

T3 sequence (Q86WV6 whole entry): as the sequence (Q86WV6 whole entry, the tested form may be a part) above
T6 sequence (Q86WV6 with tags, fused parts or gaps H232R): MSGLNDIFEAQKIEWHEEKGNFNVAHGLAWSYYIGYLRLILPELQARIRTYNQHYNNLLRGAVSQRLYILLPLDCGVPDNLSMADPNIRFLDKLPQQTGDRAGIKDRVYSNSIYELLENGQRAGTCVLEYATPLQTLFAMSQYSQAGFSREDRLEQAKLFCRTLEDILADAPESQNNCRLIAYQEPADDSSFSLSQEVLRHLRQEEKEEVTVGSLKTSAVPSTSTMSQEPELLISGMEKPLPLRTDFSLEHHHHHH
Sequence of hSTING(WT) (Q86WV6 140-379 H232R): as the sequence (Q86WV6 140-379) above, with H93R counted along it
T4 sequence (Q86WV6 whole entry R71H/G230A/H232R/R293Q): as the sequence (Q86WV6 whole entry, the tested form may be a part) above, with R71H, G230A, H232R, R293Q counted along it
T1 sequence (Q86WV6 140-379 G230A/H232R/R293Q limits assumed): as the sequence (Q86WV6 140-379) above, with G91A, H93R, R154Q counted along it
T2 sequence (Q86WV6 whole entry H232R): as the sequence (Q86WV6 whole entry, the tested form may be a part) above, with H232R counted along it

hSTING Tm Shift HAQ [1] [°C] | EC50 [4] [µM] | IFNβ luciferase reporter induction by hSTING(REF), in words [6] | hSTING Tm Shift WT [7] [°C] | hSTING Tm Shift REF [8] [°C] | Kd [9] [µM] | binding relative to OH reference compound, in words [1] | activity relative to OH reference compound, in words [4] | binding relative to OH reference compound, in words [7] | binding relative to OH reference compound, in words [8] | Structure (SMILES) | relative normalized IFNβ expression, in words [2] | relative normalized IFNβ expression, in words ([3]; FIGS. 8A-B, 2 hours stimulation, 100 μM to 0.1 μM) | percent of SIY-specific CD8+ T cells in PBMCs, in words [5] | cytokine responses (IFNβ, TNFα, IL-6, IFNγ, IL-12p40 expression), in words [3]
15.5 | 25 | responded poorly | 9.6 | 5.7 | – | – | – | – | – | Nc1ncnc2c1ncn2[C@@H]1O[C@@H]2CO[P@@](=O)(S)O[C@H]3[C@@H](O)[C@H](n4cnc5c(N)ncnc54)O[C@@H]3CO[P@@](=O)(S)O[C@H]2[C@H]1O [3'3'-RR-(A)(A), reference compound] | induced similar levels of IFNβ; also recorded: induced higher levels of IFNβ transcript when compared to the 3′3′-(A)(A) compound | did not stimulate production of appreciable IFNβ transcript levels | elicited significantly SIY-specific CD8^+ T cells | –
16.0 | 59 | – | 9.4 | 5.4 | 1.28 | – | – | – | – | Nc1ncnc2c1ncn2[C@@H]1O[C@@H]2CO[P@@](=O)(S)O[C@H]3[C@@H](F)[C@H](n4cnc5c(N)ncnc54)O[C@@H]3CO[P@@](=O)(S)O[C@H]2[C@H]1O [Compound 22, (2R,3R,3aR,5R,7aR,9R,10R,10aS,12R,14aR)-2,9-bis(6-amino-9H-purin-9-yl)-3-fluoro-10-hydroxy-5,12-dimercaptooctahydro-2H,7H-difuro[3,2-d:3′,2′-j][1,3,7,9]tetraoxa[2,8]diphosphacyclododecine 5,12-dioxide] | – | – | – | able to elicit cytokine responses at 6 hours stimulation with 100 μM of compound
25.9 | 15 | – | 14.7 | 9.5 | 0.311 | improved binding | improved activity | improved binding | improved binding | Nc1nc2c(ncn2[C@@H]2O[C@@H]3CO[P@@](=O)(S)O[C@H]4[C@@H](O)[C@H](n5cnc6c(N)ncnc65)O[C@@H]4CO[P@@](=O)(S)O[C@H]3[C@H]2F)c(=O)[nH]1 [Compound 23, 2-amino-9-((2R,3R,3aR,5R,7aR,9R,10R,10aS,12R,14aR)-9-(6-amino-9H-purin-9-yl)-3-fluoro-10-hydroxy-5,12-dimercapto-5,12-dioxidooctahydro-2H,7H-difuro[3,2-d:3′,2′-j][1,3,7,9]tetraoxa[2,8]diphosphacyclododecin-2-yl)-1,9-dihydro-6H-purin-6-one] | – | – | – | induced more robust dose-dependent responses of each of the cytokines tested
28.8 | 13 | – | 15.9 | 9.7 | 0.037 | improved binding | improved activity | improved binding | improved binding | Nc1nc2c(ncn2[C@@H]2O[C@@H]3CO[P@@](=O)(S)O[C@H]4[C@@H](F)[C@H](n5cnc6c(N)ncnc65)O[C@@H]4CO[P@@](=O)(S)O[C@H]3[C@H]2O)c(=O)[nH]1 [Compound 24, 2-amino-9-((2R,3R,3aS,5R,7aR,9R,10R,10aR,12R,14aR)-9-(6-amino-9H-purin-9-yl)-10-fluoro-3-hydroxy-5,12-dimercapto-5,12-dioxidooctahydro-2H,7H-difuro[3,2-d:3′,2′-j][1,3,7,9]tetraoxa[2,8]diphosphacyclododecin-2-yl)-1,9-dihydro-6H-purin-6-one] | – | – | – | induced more robust dose-dependent responses of each of the cytokines tested
